The source of these data is ChEMBL document CHEMBL3046467, “Structure-activity relationship of carboxin-related carboxamides as fungicide” (2011).

Format in all cases: functional
One test deals with Pyricularia grisea. The test can be described thus: Fungicidal activity against Magnaporthe grisea spores inoculated on leaves of compound pre-treated 2 or 3 leaf-stage rice plants assessed as rice blast disease control level at 250 ppm measured after 7 days post fungal inoculation.
In a further test the test system is Botrytis cinerea. As to the kind of experiment: Fungicidal activity against Botryotinia fuckeliana spores inoculated on leaves of compound pre-treated seed-leaf stage kidney beans assessed as gray mold disease control level at 500 ppm measured after 4 days post fungal inoculation.
In test [1] the test system is Puccinia recondita. As to the kind of experiment: Fungicidal activity against Puccinia recondita spores inoculated on leaves of compound pre-treated 1.5 leaf-stage wheat plants assessed as wheat brown rust disease control level at 250 ppm measured after 8 days post fungal inoculation.
Test [2] concerns Podosphaera xanthii. The test can be described thus: Fungicidal activity against Podosphaera xanthii (powdery mildew) spores inoculated on leaves of compound pre-treated 1.5 leaf-stage cucumber plants assessed as powdery mildew disease control level at 250 ppm measured after 7 days post fungal inoculation.
The test system of test [3] is Podosphaera xanthii. As to the kind of experiment: Fungicidal activity against Podosphaera xanthii (powdery mildew) spores inoculated on leaves of compound pre-treated 1.5 leaf-stage cucumber plants assessed as powdery mildew disease control level at 25 ppm measured after 7 days post fungal inoculation.
The subject of test [4] is Puccinia recondita. As to the kind of experiment: Fungicidal activity against Puccinia recondita spores inoculated on leaves of compound pre-treated 1.5 leaf-stage wheat plants assessed as wheat brown rust disease control level at 25 ppm measured after 8 days post fungal inoculation.

On to `Cn1cc(C(=O)Nc2ccccc2-c2ccccc2)c(Cl)n1`, for which the Activity in the test with Pyricularia grisea, in the test on Botrytis cinerea, in the test on Puccinia recondita [1] and in the test on Podosphaera xanthii [2] was under 95% throughout.

Take `Cc1nc(Cl)c(C(=O)Nc2ccccc2-c2ccccc2)s1`: the Activity with Pyricularia grisea, in the test with Botrytis cinerea, in the test with Puccinia recondita [1] and with Podosphaera xanthii [2] was under 95% in each case.

Turning to `CC(C)CCC(C)c1sccc1NC(=O)c1cn(C)nc1C(F)(F)F` (configuration not stated), the Activity entry is reported as “>=95%” in the test on Pyricularia grisea, “>=95%” with Botrytis cinerea, “>=50%” in the test on Podosphaera xanthii [3] and “>=95%” in the test on Puccinia recondita [4].
